PubChem BioAssay (NCI)
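Dose response: 5 concentrations. Exposure: 48 h. Format: 96-well plates. Endpoint: linear interpolation; highest concentration if not reached. Definition used: TGI = concentration required for complete inhibition of growth.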

Experiments:
Assay in all cases: NCI anticancer screen, dose series, 48 h
SK-OV-3 ovarian = test system: SK-OV-3 ovarian
HCT-116 colon = test system: HCT-116 colon
NCI-H23 lung = test system: NCI-H23 lung
EKVX NSCLC = test system: EKVX NSCLC
MALME-3M melanoma = test system: MALME-3M melanoma
T-47D breast = test system: T-47D breast
OVCAR-8 ovarian = test system: OVCAR-8 ovarian
LOX IMVI melanoma = test system: LOX IMVI melanoma
UACC-257 melanoma = test system: UACC-257 melanoma
NCI-H460 lung = test system: NCI-H460 lung
RXF 393 renal = test system: RXF 393 renal
A549 NSCLC = test system: A549 NSCLC
KM12 colon = test system: KM12 colon
OVCAR-3 ovarian = test system: OVCAR-3 ovarian
PC-3 prostate = test system: PC-3 prostate
CAKI-1 renal = test system: CAKI-1 renal
NCI/ADR-RES ovarian = test system: NCI/ADR-RES ovarian
NCI-H226 lung = test system: NCI-H226 lung
SF-539 CNS = test system: SF-539 CNS
SK-MEL-5 melanoma = test system: SK-MEL-5 melanoma
SR leukemia = test system: SR leukemia
UACC-62 melanoma = test system: UACC-62 melanoma
SK-MEL-28 melanoma = test system: SK-MEL-28 melanoma
K-562 leukemia = test system: K-562 leukemia
SW-620 colon = test system: SW-620 colon
SF-295 CNS = test system: SF-295 CNS
HT29 colon = test system: HT29 colon
CCRF-CEM leukemia = test system: CCRF-CEM leukemia
SN12C renal = test system: SN12C renal
U251 CNS = test system: U251 CNS
IGROV1 ovarian = test system: IGROV1 ovarian
DU-145 prostate = test system: DU-145 prostate
HCT-15 colon = test system: HCT-15 colon
A498 renal = test system: A498 renal
MDA-MB-435 = test system: MDA-MB-435
MCF7 breast = test system: MCF7 breast
MOLT-4 leukemia = test system: MOLT-4 leukemia
TK-10 renal = test system: TK-10 renal
786-0 renal = test system: 786-0 renal
OVCAR-5 ovarian = test system: OVCAR-5 ovarian
UO-31 renal = test system: UO-31 renal
M14 melanoma = test system: M14 melanoma
NCI-H522 lung = test system: NCI-H522 lung
SNB-19 CNS = test system: SNB-19 CNS
BT-549 breast = test system: BT-549 breast
SNB-75 CNS = test system: SNB-75 CNS
RPMI-8226 leukemia = test system: RPMI-8226 leukemia
ACHN renal = test system: ACHN renal
MDA-MB-231 breast = test system: MDA-MB-231 breast
COLO 205 colon = test system: COLO 205 colon
OVCAR-4 ovarian = test system: OVCAR-4 ovarian
SK-MEL-2 melanoma = test system: SK-MEL-2 melanoma
HOP-92 NSCLC = test system: HOP-92 NSCLC
HCC-2998 colon = test system: HCC-2998 colon
HS 578T breast = test system: HS 578T breast
SF-268 CNS = test system: SF-268 CNS
HOP-62 NSCLC = test system: HOP-62 NSCLC
HL-60(TB) leukemia = test system: HL-60(TB) leukemia

SMILES: CC(=O)OC(C)(C)C1O[C@@]23OC1C[C@@H](C)[C@@H]2[C@@]1(C)CC[C@@]24C[C@@]25CC[C@H](OC2OCC(O)C(O)C2O)C(C)(C)[C@@H]5CCC4[C@]1(C)[C@H]3O (stereo partly specified)
- TGI (SK-OV-3 ovarian): 28.6 µM
- TGI (HCT-116 colon): 19.1 µM
- TGI (NCI-H23 lung): 15.7 µM
- TGI (EKVX NSCLC): 18.8 µM
- TGI (MALME-3M melanoma): 42.1 µM
- TGI (T-47D breast): 79.4 µM
- TGI (OVCAR-8 ovarian): 64.8 µM
- TGI (LOX IMVI melanoma): 31.4 µM
- TGI (UACC-257 melanoma): 32.9 µM
- TGI (NCI-H460 lung): 32.2 µM
- TGI (RXF 393 renal): 30.3 µM
- TGI (A549 NSCLC): 21.4 µM
- TGI (KM12 colon): 13.8 µM
- TGI (OVCAR-3 ovarian): 13.4 µM
- TGI (PC-3 prostate): 17.1 µM
- TGI (CAKI-1 renal): 20.4 µM
- TGI (NCI/ADR-RES ovarian): 27.8 µM
- TGI (NCI-H226 lung): 19.5 µM
- TGI (SF-539 CNS): 12 µM
- TGI (SK-MEL-5 melanoma): 23.3 µM
- TGI (SR leukemia): 15.2 µM
- TGI (UACC-62 melanoma): 27.7 µM
- TGI (SK-MEL-28 melanoma): 29.8 µM
- TGI (K-562 leukemia): > 93.2 µM
- TGI (SW-620 colon): > 100 µM
- TGI (SF-295 CNS): 24.7 µM
- TGI (HT29 colon): 24.7 µM
- TGI (CCRF-CEM leukemia): > 38.3 µM
- TGI (SN12C renal): 10.7 µM
- TGI (U251 CNS): 22.1 µM
- TGI (IGROV1 ovarian): 29.1 µM
- TGI (DU-145 prostate): 15.4 µM
- TGI (HCT-15 colon): 10.8 µM
- TGI (A498 renal): 18.2 µM
- TGI (MDA-MB-435): 32.3 µM
- TGI (MCF7 breast): 11.9 µM
- TGI (MOLT-4 leukemia): 21.5 µM
- TGI (TK-10 renal): 24.5 µM
- TGI (786-0 renal): 18.9 µM
- TGI (OVCAR-5 ovarian): 31.8 µM
- TGI (UO-31 renal): 29.7 µM
- TGI (M14 melanoma): 24.2 µM
- TGI (NCI-H522 lung): 25.3 µM
- TGI (SNB-19 CNS): 18.6 µM
- TGI (BT-549 breast): 40.6 µM
- TGI (SNB-75 CNS): 46.5 µM
- TGI (RPMI-8226 leukemia): 29.1 µM
- TGI (ACHN renal): 17 µM
- TGI (MDA-MB-231 breast): 14.8 µM
- TGI (COLO 205 colon): 25.1 µM
- TGI (OVCAR-4 ovarian): 23.8 µM
- TGI (SK-MEL-2 melanoma): 39 µM
- TGI (HOP-92 NSCLC): 31.6 µM
- TGI (HCC-2998 colon): 25.7 µM
- TGI (HS 578T breast): 45.6 µM
- TGI (SF-268 CNS): 41.3 µM
- TGI (HOP-62 NSCLC): 37.7 µM
- TGI (HL-60(TB) leukemia): 5.48 µM

SMILES: O=C1CCCC/C1=C(\Br)I
- TGI (SK-OV-3 ovarian): 49.2 µM
- TGI (HCT-116 colon): 25 µM
- TGI (NCI-H23 lung): 16.8 µM
- TGI (EKVX NSCLC): 34.4 µM
- TGI (MALME-3M melanoma): 12.1 µM
- TGI (T-47D breast): 15.2 µM
- TGI (OVCAR-8 ovarian): 28.1 µM
- TGI (LOX IMVI melanoma): 32.4 µM
- TGI (UACC-257 melanoma): 30.5 µM
- TGI (NCI-H460 lung): 33 µM
- TGI (RXF 393 renal): 29.5 µM
- TGI (A549 NSCLC): 58.6 µM
- TGI (KM12 colon): 34 µM
- TGI (OVCAR-3 ovarian): 32.1 µM
- TGI (PC-3 prostate): 32.9 µM
- TGI (CAKI-1 renal): 24.9 µM
- TGI (NCI/ADR-RES ovarian): 41.1 µM
- TGI (NCI-H226 lung): 43.7 µM
- TGI (SF-539 CNS): 41.2 µM
- TGI (SK-MEL-5 melanoma): 42.1 µM
- TGI (SR leukemia): 9.49 µM
- TGI (UACC-62 melanoma): 38.3 µM
- TGI (SK-MEL-28 melanoma): 29.9 µM
- TGI (K-562 leukemia): 10.3 µM
- TGI (SW-620 colon): 10.4 µM
- TGI (SF-295 CNS): 37.7 µM
- TGI (HT29 colon): 27.4 µM
- TGI (CCRF-CEM leukemia): 5.68 µM
- TGI (SN12C renal): 30.8 µM
- TGI (U251 CNS): 34 µM
- TGI (IGROV1 ovarian): 40.8 µM
- TGI (DU-145 prostate): 26 µM
- TGI (HCT-15 colon): 7.97 µM
- TGI (A498 renal): 35.7 µM
- TGI (MDA-MB-435): 29.4 µM
- TGI (MCF7 breast): 32.9 µM
- TGI (MOLT-4 leukemia): 7.17 µM
- TGI (TK-10 renal): 18.4 µM
- TGI (786-0 renal): 37.5 µM
- TGI (OVCAR-5 ovarian): 33.2 µM
- TGI (UO-31 renal): 31.5 µM
- TGI (M14 melanoma): 20.1 µM
- TGI (NCI-H522 lung): 3.48 µM
- TGI (SNB-19 CNS): 47.5 µM
- TGI (BT-549 breast): 31.6 µM
- TGI (SNB-75 CNS): 34.8 µM
- TGI (RPMI-8226 leukemia): 16.5 µM
- TGI (ACHN renal): 29.6 µM
- TGI (MDA-MB-231 breast): 32.5 µM
- TGI (COLO 205 colon): 28.8 µM
- TGI (OVCAR-4 ovarian): 29.3 µM
- TGI (SK-MEL-2 melanoma): 38.6 µM
- TGI (HOP-92 NSCLC): 31.8 µM
- TGI (HCC-2998 colon): 9.79 µM
- TGI (HS 578T breast): > 100 µM
- TGI (SF-268 CNS): 14.8 µM
- TGI (HOP-62 NSCLC): 36.7 µM
- TGI (HL-60(TB) leukemia): 5.71 µM
